From US6150361A, “Triazineone compounds for treating diseases due to sarcosystis, neospora and toxoplasma” (Bayer Corporation, priority 1998, dated 2000)
“And” between values parts separate entries of the source, which are not always exact repeats. Equal entries are not always repeated. Values belong to the molecule of their own block, whether it stands above or below them.

Legend:
Assay type in all cases: in vivo
[1] = Pharmacokinetics of a single oral dose of Toltrazuril in horses (blood levels); conditions: single oral dose of Toltrazuril 10 mg/kg; for concentration at 24 h / Concentration in mg/l of Blood, 24 hours: 24 h post treatment; for concentration at 24 h: read-out: Concentration in mg/l of Blood, 24 hours; for concentration at 48 h / Concentration in mg/l of Blood, 48 hours: 48 h post treatment; for concentration at 48 h: read-out: Concentration in mg/l of Blood, 48 hours; for concentration at 72 h / Concentration in mg/l of Blood, 72 hours: 72 h post treatment; for concentration at 72 h: read-out: Concentration in mg/l of Blood, 72 hours; for Concentration in mg/l of Blood, 24 hours: 1440 min; for Concentration in mg/l of Blood, 48 hours: 2880 min; for Concentration in mg/l of Blood, 72 hours: 4320 min
Description: A pharmacokinetic study was conducted in horses comparing blood levels of Toltrazuril, Ponazuril and Toltrazuril Sulfoxide at various times post a single dose of Toltrazuril. All horses received a single dose of 10 mg/kg, which was administered orally as a suspension. Blood samples were drawn at the time of treatment (0) and at 0.25, 0.5, 1, 2, 4, 6, 12, 24, 48 and 72 hours post treatment. […] This was an indication that Ponazuril, alone, would produce acceptable blood levels that are envisioned to pass the blood-brain barrier, a characteristic required to treat neurological diseases such as those caused by Sarcocystis neurona, Toxoplasma gondii, Neospora caninum and Neospora

[2] = Drug levels in serum after repeated doses of Toltrazuril in horses; design: unit not given here; conditions: for AVG drug level in serum, 48 Hrs / AVG drug level in serum, 96 Hrs / AVG drug level in serum, 240 Hrs: group average; for Drug level in serum, 48 Hrs / Drug level in serum, 96 Hrs / Drug level in serum, 240 Hrs: individual horse
Description: (§1) This experiment was conducted in order to determine whether triazineones such as Toltrazuril can pass the blood-brain barrier. Normal horses were divided into three groups of three horses per group. Group 1 horses received Toltrazuril administered orally as a 5% suspension at a dose level of 2.5 mg/Kg. Group 2 horses received Toltrazuril administered orally as a 5% suspension at a dose level of 5.0 mg/Kg. Group 3 horses received Toltrazuril administered orally as a 5% suspension at a dose level of 7.5 mg/Kg. The dosing was repeated daily for 10 days. Blood samples were drawn at 48, 96 and 240 hours and the concentration of Toltrazuril, Toltrazuril sulfoxide and Ponazuril in the serum was measured. Ten days after the start of the treatment (Day 10), a sample of cerebral spinal fluid was removed from each horse and the concentrations of Toltrazuril, Toltrazuril Sulfoxide and Ponazuril were again measured in these samples. The concentrations of Toltrazuril, Toltrazuril Sulfoxide and Ponazuril in the serum and cerebral spinal fluid are reported in TABLES 5a and 5b.

[3] = Drug levels in cerebral spinal fluid after repeated doses of Toltrazuril in horses; design: Drug level in Cerebral Spinal Fluid, Day 10 / AVG drug level in Cerebral Spinal Fluid, Day 10: unit not given here; conditions: Day 10; for AVG drug level in Cerebral Spinal Fluid, Day 10: group average; for Drug level in Cerebral Spinal Fluid, Day 10: individual horse
Description: as §1

[4] = Passing of the blood-brain barrier in horses; conditions: after oral Toltrazuril daily for 10 days
Description: as §1

[5] = horse, blood, po, 10 mg/kg, suspension, one value per horse (A-F)
[6] = suspension, one value per horse (A-F), 10 mg/kg
[7] = Toltrazuril 2.5 mg/Kg oral daily for 10 days
[8] = Toltrazuril 5.0 mg/Kg oral daily for 10 days
[9] = Toltrazuril 7.5 mg/Kg oral daily for 10 days

- concentration at 0.25 h ([1]; horse, blood, po, 10 mg/kg, suspension, 0.25 h post treatment, one value per horse (A-F), read-out: Concentration in mg/l of Blood, 0.25 hours): < 0.01 mg/L
- concentration at 24 h [1, 5]: 0.407 mg/L
- concentration at 48 h [1, 5]: 0.732 mg/L
- concentration at 72 h [1, 5]: 0.592 mg/L
- levels in serum/bloodstream of horses receiving Toltrazuril (in words) [1]: significant levels
- Concentration in mg/l of Blood, 72 hours [1, 6]: 0.346 mg/L and 0.377 mg/L
Structure (SMILES): Cc1cc(-n2c(=O)[nH]c(=O)n(C)c2=O)ccc1Oc1ccc([S+]([O-])C(F)(F)F)cc1 (centres unmarked) [Toltrazuril Sulfoxide]
- Concentration in mg/l of Blood, 24 hours [1, 6]: 0.566 mg/L and 0.461 mg/L and 0.481 mg/L and 0.633 mg/L
- Concentration in mg/l of Blood, 48 hours [1, 6]: 0.454 mg/L and 0.477 mg/L and 0.749 mg/L and 0.741 mg/L and 0.642 mg/L

- concentration at 24 h [1, 5]: 6.43 mg/L
- concentration at 48 h [1, 5]: 7.61 mg/L
- concentration at 72 h [1, 5]: 6.65 mg/L
- Concentration in mg/l of Blood, 0.25 hours ([1]; suspension, 0.25 h post treatment, one value per horse (A-F), 10 mg/kg, 15 min): 0.061 mg/L
- Concentration in mg/l of Blood, 1 hour ([1]; suspension, 1 h post treatment, one value per horse (A-F), 10 mg/kg, 60 min): 3.286 mg/L
- Concentration in mg/l of Blood, 72 hours [1, 6]: 5.058 mg/L and 7.633 mg/L
- AVG drug level in serum, 48 Hrs [2, 7]: 6.70
- AVG drug level in serum, 96 Hrs [2, 7]: 10.68
- AVG drug level in serum, 240 Hrs [2, 7]: 13.37
- Drug level in serum, 48 Hrs [2, 7]: 4.49 and 4.0 and 11.6
- Drug level in serum, 96 Hrs [2, 7]: 9.85 and 9.09 and 13.1
- Drug level in serum, 240 Hrs [2, 7]: 15.29 and 9.60 and 15.21
- AVG drug level in serum, 48 Hrs [2, 8]: 8.57
- AVG drug level in serum, 96 Hrs [2, 8]: 15.46
- AVG drug level in serum, 240 Hrs [2, 8]: 19.68
- Drug level in serum, 48 Hrs [2, 8]: 7.28 and 9.18 and 9.26
- Drug level in serum, 96 Hrs [2, 8]: 14.17 and 14.03 and 18.19
- Drug level in serum, 240 Hrs [2, 8]: 24.92 and 16.54 and 17.59
- AVG drug level in serum, 48 Hrs [2, 9]: 10.18
- AVG drug level in serum, 96 Hrs [2, 9]: 21.92
- AVG drug level in serum, 240 Hrs [2, 9]: 25.95
- Drug level in serum, 48 Hrs [2, 9]: 9.90 and 10.46
- Drug level in serum, 96 Hrs [2, 9]: 27.74 and 19.55 and 18.47
- Drug level in serum, 240 Hrs [2, 9]: 30.08 and 24.15 and 23.53
- AVG drug level in Cerebral Spinal Fluid, Day 10 [3, 7]: 0.15
- Drug level in Cerebral Spinal Fluid, Day 10 [3, 7]: 0.23 and 0.06 and 0.15
- AVG drug level in Cerebral Spinal Fluid, Day 10 [3, 8]: 0.19
- Drug level in Cerebral Spinal Fluid, Day 10 [3, 8]: 0.19 and 0.12 and 0.26
- AVG drug level in Cerebral Spinal Fluid, Day 10 [3, 9]: 0.39
- Drug level in Cerebral Spinal Fluid, Day 10 [3, 9]: 0.50 and 0.21 and 0.45
Structure (SMILES): Cc1cc(-n2c(=O)[nH]c(=O)n(C)c2=O)ccc1Oc1ccc(SC(F)(F)F)cc1 [Toltrazuril, reference compound]
- Concentration in mg/l of Blood, 24 hours [1, 6]: 11.690 mg/L and 7.236 mg/L and 8.694 mg/L and 10.224 mg/L
- Concentration in mg/l of Blood, 48 hours [1, 6]: 6.677 mg/L and 9.758 mg/L and 8.234 mg/L and 6.869 mg/L and 7.096 mg/L
- crossing of the blood-brain barrier [4]: effectively cross the blood-brain barrier
